Legend:
A549 cells [1] = experiment: Cell growth by cell counting, A549; assay type: cell-based; conditions: for A549 cell growth inhibition: various concentrations and time points
Method: Lung cancer A549 (ATCC) and PC14 (ATCC) cells were cultured in minimum essential medium (Cellgro) with 10% (v/v) fetal bovine serum (FBS) (HyClone), 2% vitamins, 1% L-glutamine, 1% non-essential amino acids and 1% sodium pyruvate. For the treatment with identified compounds, cells (2, 000 cells/well) were seeded in 24-well plates in the medium containing 2% FBS. The fresh medium containing identified compounds was added 24 hours later. Cells were cultured for various times in a CO2 incubator and the cell numbers were counted. Each experiment was performed in triplicate.
A, Lung cancer A549 cells were cultured in the presence of various concentrations (μM) of identified compounds and growth inhibition was determined by cell counting at various time points. B, Lung cancer PC14 cells were cultured in the presence of DMSO or various concentrations of identified compounds and growth inhibition was determined by cell counting 2 days post the compound treatment. C, The serum concentrations of compound C9 after oral administration. Mice were sacrificed and blood samples were collected immediately before (0 h) and at 2, 4, 6 and 8h after compound administration.
Fig 8 The C9 analogue has improved PRMT5-inhibitory efficacy and oral drug availability. A, The chemical structure of the C9 analogue. B, Compound C9a inhibited methylation of SmD3 by PRMT5. The recombinant SmD3 (2 μg) was used as the substrate in the absence (lane 5) or presence of 1, 10 or 100 μM compounds as indicated. […] C, C9a has improved efficacy to inhibit lung cancer growth. A549 cells were cultured in the presence of various concentrations of C9 or C9a and growth inhibition was determined by cell counting 2 days post the compound treatment. […] Male BALB/c mice were randomized and administrated C9a by oral gavage and compound concentrations in blood samples were determined.

PRMT5 F225M = target: T1, PRMT5 F225M (Homo sapiens, UniProt O14744, F327M); experiment: Radioactive methyltransferase assay, mutant PRMT5; assay type: biochemical; conditions: F225M mutant PRMT5, SmD3 substrate, Fig 4D
T1 construct: His6; made in house; host or cells: bacteria (E. coli BL21(ED3) for the wild type)
Method: Methylation reactions were performed as previously described with a few modifications. Reaction mixtures (40 μl) containing 1.2 μg of PRMT5, 98 ng of PRMT1 or 98 ng of PRMT3; 2 μg of SmD3 or histones; 1 μCi of S-[methyl-^3H]adenosylmethionine (H^3-AdoMet; PerkinElmer); and 5 μM AdoMet were incubated in 50 mM Tris-HCl (pH 7.5)–1 mM EGTA–1 mM EDTA at 30°C for 2 h. Reaction mixtures (20 μl) were boiled in 5 μl of 5x SDS sample buffer and separated on a 15% polyacrylamide gel. Gels were fixed for 30 min in 40% methanol–10% acetic acid, incubated in 20 ml of Amplify (Amersham Life Science) for 10 min, dried and exposed to X-ray film at -80°C. IC50 was calculated by linear regression analysis of percent inhibition. The other half (20 μl) of each reaction mixture was spread onto DE81 chromatography paper discs (Whatman). The paper discs were washed 4 times with 50 mM NaHCO3 and dried. The amounts of methylated products were quantified by liquid scintillation.
The inhibitory activity of the compounds may stem from this interaction. To test this possibility, we conducted site-directed mutagenesis to mutate Phe225 in human PRMT5 (corresponding to Phe379 in the C. elegans PRMT5) to Met. The mutated PRMT5 was expressed in bacteria and purified by Ni-nitrilotriacetic acid (Ni-NTA) affinity chromatography (Fig 4A). The activity of the mutant PRMT5 was examined by the radioactive methyltransferase assay. […] The IC50 values for the mutant PRMT5 increased from 4.3 to 183 folds higher than those for the wild type PRMT5 (Fig 4D). […] The results also can help explain the specificity of the compounds to PRMT5. However, the contribution of this interaction to inhibition varies among the compounds. For example, compound C2 interacts with three amino acid residues (Lys451, Glu450, and Phe379) (Fig 3A) with the mutation of Phe to Met resulting in a 50-times higher IC50 (Fig 4C and 4D).
Fig 4 The conserved phenylalanine residue in PRMT5 is critical for inhibition by the five compounds. A, DS-PAGE of recombinant wild type (WT) and F225M mutant (MT) PRMT5. The gel was stained with Coomassie Brilliant Blue R250. A band corresponding to an unknown bacterial protein is indicated (star). B, The F225M mutation increased the methytransferase activity of PRMT5. In vitro methylation reactions were performed with recombinant wild type (lanes 2–4) or mutant (lanes 5–7) PRMT5 (1.2, 2.4 or 4.8 μg) and SmD3 (2 μg) as the substrate. C, The F225M mutation in PRMT5 decreased inhibition of arginine methylation by the compounds. The reaction mixture contained SmD3 (2 μg); wild type or mutant PRMT5 (1.2 μg); and 1, 10 or 100 μM compounds as indicated. D, The F225M mutation in PRMT5 […] of the compounds, as determined by quantitation and analysis of methylation assay results. TEXT PRINTED IN THE PICTURE: (D) C2: IC50 (μM) PRMT5: 0.1; IC50 (μM) PRMT5 F225M: 5.0 | (D) C5: IC50 (μM) PRMT5: 0.8; IC50 (μM) PRMT5 F225M: 3.5 | (D) C6: IC50 (μM) PRMT5: 0.5; IC50 (μM) PRMT5 F225M: 7.0 | (D) C9: IC50 (μM) PRMT5: 6.0; IC50 (μM) PRMT5 F225M: 45.0 | (D) C11: IC50 (μM) PRMT5: 0.3; IC50 (μM) PRMT5 F225M: 55.0

A549 cells [2] = experiment: BrdU incorporation assay; assay type: cell-based; conditions: 20 μM, 2 days
Method: A549 cells were infected with the lentivirus expressing NT or PRMT5 shRNA. A549 cells were grown in the presence of DMSO or compound C5, C9 or C11 (20 μM) for 2 days. A, Bromodeoxyuridine (BrdU) (BD Biosciences) incorporation assay. Cells were plated on a Chamber slide (BD falcon) and cultured in the presence of 10 μM BrdU for 4 h. The BrdU-positive cells (brown) were detected by immunostaining with the monoclonal anti-BrdU antibody (BD Biosciences) and observed under a microscope. B, Percentage of BrdU-positive cells in control, PRMT5-silencing or compound treated cells. The results represent the means of three independent experiments ± the standard deviation. ***, P<0.001. (TIF) Click here for additional data file.

T1 sequence (O14744 whole entry F327M): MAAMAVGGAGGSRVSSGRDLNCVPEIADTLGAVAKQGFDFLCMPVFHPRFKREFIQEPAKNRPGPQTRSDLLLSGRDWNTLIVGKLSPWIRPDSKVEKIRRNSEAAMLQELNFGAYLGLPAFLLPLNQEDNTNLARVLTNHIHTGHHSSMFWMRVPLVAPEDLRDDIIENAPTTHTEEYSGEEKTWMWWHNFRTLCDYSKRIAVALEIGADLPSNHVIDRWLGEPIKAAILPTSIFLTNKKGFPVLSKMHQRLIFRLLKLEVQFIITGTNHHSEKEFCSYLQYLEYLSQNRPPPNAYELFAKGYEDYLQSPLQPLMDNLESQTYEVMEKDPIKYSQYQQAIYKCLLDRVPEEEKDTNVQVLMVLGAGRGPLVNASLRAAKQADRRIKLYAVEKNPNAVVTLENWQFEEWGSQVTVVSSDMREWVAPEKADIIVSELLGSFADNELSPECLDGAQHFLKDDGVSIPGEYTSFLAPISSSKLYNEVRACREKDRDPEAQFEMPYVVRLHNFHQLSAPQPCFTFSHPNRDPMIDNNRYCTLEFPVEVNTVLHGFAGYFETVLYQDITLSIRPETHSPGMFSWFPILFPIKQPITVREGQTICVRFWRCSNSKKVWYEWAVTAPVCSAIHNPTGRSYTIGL

SMILES | A549 cell growth inhibition (A549 cells [1]) | IC50 (PRMT5 F225M) [µM] | cellular proliferation (BrdU) (A549 cells [2]) | IC50 (A549 cells [1]; Homo sapiens, A549 cells) [µM] | inhibition of growth of lung cancer cells compared to C9 (A549 cells [1]; A549 cells, 2 days)
CCn1c(=O)[nH]c2cc(C(=O)Nc3ccc(OC)cc3)ccc2c1=O [Compound C5] | inhibited A549 cell growth in a dosage- and time-dependent manner at sub μM concentrations | 3.5 | inhibited proliferation of lung cancer cells | – | –
COc1ccc(Nc2ncnc3c2cnn3Cc2ccc(C)cc2)cc1 [Compound C9] | inhibited A549 cell growth in a dosage- and time-dependent manner at sub μM concentrations | 45 | inhibited proliferation of lung cancer cells | ~1 | –
Nc1cccc(Nc2ncnc3c2cnn3Cc2ccccc2)c1 [Compound C9a] | – | – | – | – | higher efficacy
Cn1cc(C(c2ccc(O)c(O)c2O)c2cn(C)c3ccccc23)c2ccccc21 [Compound C11] | inhibited A549 cell growth in a dosage- and time-dependent manner at sub μM concentrations | 55 | inhibited proliferation of lung cancer cells | – | –
